Earlier results as cited in patent US20090148430A1, “HUMAN OBESITY SUSCEPTIBILTY GENE ENCODING POTASSIUM ION CHANNELS AND USES THEREOF” (priority 2004, published 2009).
pIC50: −log10 of the molar value.

Experiments:
Kv channel [1] = conditions: extracellular application, MASMC and intestinal epithelial cells, rats
Kv1.5 = Kv1.5 (Rattus norvegicus, UniProt P19024); conditions: independent of effects on PTK activity
pig Kv1.5 = conditions: expressed in Xenopus oocytes; read-out: IC(50) block of pig Kv1.5
[2] = target: T1, cloned rat brain potassium channel Kv1.1 (Rattus norvegicus, UniProt P10499); conditions: Kv1.1, Xenopus laevis oocytes
T1 construct: host or cells: Xenopus laevis oocytes
T1 sequence (P10499 whole entry): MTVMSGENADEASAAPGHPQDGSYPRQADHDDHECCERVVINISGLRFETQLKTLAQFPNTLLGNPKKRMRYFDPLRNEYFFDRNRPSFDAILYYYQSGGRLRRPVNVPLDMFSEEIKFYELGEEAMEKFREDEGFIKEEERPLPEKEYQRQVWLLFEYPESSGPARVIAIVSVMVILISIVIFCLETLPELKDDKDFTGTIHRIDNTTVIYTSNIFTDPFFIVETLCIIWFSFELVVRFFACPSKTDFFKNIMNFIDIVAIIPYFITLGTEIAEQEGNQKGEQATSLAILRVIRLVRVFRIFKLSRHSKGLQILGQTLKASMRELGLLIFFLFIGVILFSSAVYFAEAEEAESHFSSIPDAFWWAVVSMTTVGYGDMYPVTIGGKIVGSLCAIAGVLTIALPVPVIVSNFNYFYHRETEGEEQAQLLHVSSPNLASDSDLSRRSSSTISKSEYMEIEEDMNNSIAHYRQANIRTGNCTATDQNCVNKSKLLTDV

Kv channel [3] = conditions: vascular smooth muscle cells
[4] = test system: KV currents including Kv1.1; conditions: mammalian neurons, therapeutic levels
[5] = intranasal, healthy controls
[6] = massively obese child with leptin deficiency mutation

Sequence of Kv1.5 (P19024 whole entry): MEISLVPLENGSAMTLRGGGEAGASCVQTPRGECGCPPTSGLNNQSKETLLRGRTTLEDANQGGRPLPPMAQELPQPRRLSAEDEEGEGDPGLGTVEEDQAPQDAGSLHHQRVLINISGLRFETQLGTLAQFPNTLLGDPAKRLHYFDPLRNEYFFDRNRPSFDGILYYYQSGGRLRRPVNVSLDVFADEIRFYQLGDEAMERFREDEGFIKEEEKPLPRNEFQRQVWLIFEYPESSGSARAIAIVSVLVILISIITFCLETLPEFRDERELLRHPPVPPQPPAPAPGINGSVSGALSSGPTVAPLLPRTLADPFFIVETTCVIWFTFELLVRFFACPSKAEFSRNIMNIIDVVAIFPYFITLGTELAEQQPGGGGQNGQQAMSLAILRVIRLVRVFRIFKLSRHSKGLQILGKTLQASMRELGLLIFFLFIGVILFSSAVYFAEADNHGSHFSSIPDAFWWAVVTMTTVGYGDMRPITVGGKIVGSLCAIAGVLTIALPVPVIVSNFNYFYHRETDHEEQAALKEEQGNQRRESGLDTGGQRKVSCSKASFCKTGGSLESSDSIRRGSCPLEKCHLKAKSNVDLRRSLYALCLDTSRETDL

Nc1ccncc1 [4-aminopyridine]
effect of K+ channel blockade (Kv channel [1]): anorexic effect

COc1cc2ncnc(Nc3cccc(Cl)c3)c2cc1OC [AG-1478]
action on Kv1.5 currents (Kv1.5): open-channel blocker

COc1ccc(CC(=O)NCc2ccccc2-c2ccccc2C(=O)NCCc2cccnc2)cc1 [AVE0118]
pIC50 (pig Kv1.5): 5.27

C1CCc2nnnn2CC1 [PTZ, pentylenetetrazol]
effect on potassium currents at more negative potentials ([2]; more negative potentials): increased the potassium currents
effect on potassium currents at more positive potentials ([2]; more positive potentials): decreased them

C=C1C[C@@]2(O)[C@@H]3CC[C@@]4(C)[C@@H]5C=CC(=O)OC[C@]5(C(C)OC(C)=O)[C@@H](OC(C)=O)[C@@H](OC(C)=O)[C@@H]4[C@@]3(C)[C@H](OC(C)=O)[C@H](OC(C)=O)[C@@]2(C)C2(C(=O)OC)O[C@H]12 (some centres unmarked) [correolide]
pressure threshold for eliciting peristaltic contractions (guinea-pig ileum): progressive and sustained reduction

CCN[C@@H](C)Cc1cccc(C(F)(F)F)c1 [dexenfluramine]
Kv channel activity (Kv channel [3]): decrease Kv channel activity

CCNC(C)Cc1cccc(C(F)(F)F)c1 (centres unmarked) [fenfluramine]
Kv channel activity (Kv channel [3]): decrease Kv channel activity

CNCCC(Oc1ccc(C(F)(F)F)cc1)c1ccccc1 (centres unmarked) [fluoxetine]
block of KV currents including Kv1.1 [4]: can occur at therapeutic levels

ACTH4-10: adrenocorticotropin4-10, representing a core sequence of all melanocortins (MEHFRWG; Corticotropin; UniProt P01189 141-147, looked up, fragment)
body fat mass [5]: reduced
plasma leptin concentrations [5]: reduced
weight [5]: reduced

Kaliotoxin: a Kv1.1 and Kv1.3 channel blocker
associative learning (rats): improves associative learning

alpha-dendrotoxin
peristaltic activity (guinea-pig ileum): increases the peristaltic activity
pressure threshold for eliciting peristaltic contractions (guinea-pig ileum): immediate reduction

dendrotoxin-K
peristaltic activity (guinea-pig ileum): increases the peristaltic activity
pressure threshold for eliciting peristaltic contractions (guinea-pig ileum): immediate reduction

margatoxin (TIINVKCTSPKQCLPPCKAQFGQSAGAKCMNGKCKCYPH; UniProt P40755 1-39, looked up)
peristaltic activity (guinea-pig ileum): increases the peristaltic activity
pressure threshold for eliciting peristaltic contractions (guinea-pig ileum): immediate reduction

recombinant leptin: recombinant leptin used to treat a child with a leptin deficiency mutation
treatment outcome [6]: treated successfully
